The text below walks through data of patent publication EP0530016B1, “Piperidine derivative and pharmaceutical composition containing it” (Ajinomoto Co., Inc., priority 1991, dated 1993).

Structures are written as SMILES.

Test [1] relates to spontaneously hypertensive rats. Put plainly: Antihypertensive effect after intravenous bolus injection, tail-cuff systolic blood pressure. The test is classed as in vivo. The conditions noted are these: dose 10 mg/kg, reduction in systolic blood pressure from basal values, male spontaneously hypertensive rats. The procedure:
Two male spontaneously hypertensive rats (body weight 400-440g) and in which hypertension was confirmed were used as test animals. These were obtained from Charles River Japan (Kanagawa, Japan) and were maintained in a pathogen free state until used.
An aqueous solution of the derivative prepared in Example 1 above in physiological saline containing 2.5% Nicolle TM and 2.5% ethanol was intravenously administered by bolus injection in a does of 1ml per 1 kg body weight. Systolic blood pressure (SBP) after administration was measured by an indirect (tail-cuff) method. The antihypertensive effect was shown as a reduction in blood pressure (mmHg) from the basal values.

For test [2] the test system is unchanged. Put plainly: Antihypertensive effect after oral administration, tail-cuff systolic blood pressure. The test is classed as in vivo. Conditions: dose 6 mg/kg, reduction in systolic blood pressure from basal values, male spontaneously hypertensive rats; for dSBP (mmHg) 2hr: 2hr after administration; for dSBP (mmHg) 6hr: 6hr after administration. The procedure:
Four male spontaneously hypertensive rats (body weight 400-440g) and in which hypertension was confirmed were used. These were obtained from Charles River Japan (Kanagawa, Japan and were maintained in a pathogen free state until used.
A 5% arabic gum aqueous suspension of each sample was administered orally in a dose of 1ml per kg body weight. Systolic blood pressure after administration was measured by an indirect (tail-cuff) method. Antihypertensive effect was shown as a reduction in blood pressure (mmHg) from the basal values.

Test [3] relates to platelet aggregation induced by a combination of ADP and serotonin. Put plainly: Inhibition of the increased platelet aggregation caused by serotonin in platelet rich plasma. The test is classed as cell-based. Conditions: Oryctolagus cuniculus; rabbit platelet rich plasma; ADP (1.5»M) and serotonin (5»M); 50% inhibition of the increased platelet aggregation caused by serotonin. The procedure:
Blood was obtained from rabbit and was treated with 3.8% sodium citrate. Platelet rich plasma (PRP) was prepared by centrifugation at 1200 rpm for 10 min at room temperature. The platelet aggregation induced by adenosine diphosphate (ADP) (1.5»M) and by a combination of ADP (1.5»M) and serotonin (5»M) was measured. Then the concentration of piperidine derivative required to produce 50% inhibition of the increased platelet aggregation caused by serotonin compared with the control was calculated as IC50.

Regarding `NS(=O)(=O)c1ccc(C=CCN2CCC(=C3c4ccccc4C=Cc4ccccc43)CC2)cc1` [Example 1, 1-(4-Aminosulfonylcinnamyl)-4-(5H-dibenzo[a,d]cyclohepten-5-ylidene)piperidine], the “dSBP (mmHg) 0.5hr” value in test [1] (0.5hr after administration) is listed as -83 mmHg. For the same compound, the “dSBP (mmHg) 4hr” value in test [1] (4hr after administration) is -95 mmHg. Moreover, in test [2], the “dSBP (mmHg) 2hr” value was -37 mmHg and the “dSBP (mmHg) 6hr” value is reported as -48 mmHg. For the same compound, the IC50 (usually the concentration at which inhibition is half-maximal) in test [3] was 0.2 µM.

`NS(=O)(=O)c1ccc(C=CCN2CCC(=C3c4ccccc4CSc4ccccc43)CC2)cc1` [Example 2, 11-[1-(4-Aminosulfonylcinnamyl)-4-piperidinylidene]-6,11-dihydrodibenzo[b,e]thiepin]: in test [2], the “dSBP (mmHg) 2hr” value is reported as -31 mmHg and the “dSBP (mmHg) 6hr” value was -43 mmHg. In addition, the IC50 in test [3] is 0.251 µM.
